Calls of active or inactive are those of the source.
Assays:
Cytochrome P450 2C19 = Cytochrome P450 2C19 (Homo sapiens, UniProt P33261); assay: Cytochrome panel assay with activity outcomes. Panel member name: p450-cyp2c19 Compounds with AC50 equal or less than 10 uM are considered active; format: functional
Cytochrome P450 2C9 = Cytochrome P450 2C9 (Homo sapiens, UniProt P11712)
[1] = HEK-293T cell viability reduction – luminescence, B-cell screen hits, cytotoxicity control for BCR NF-kB inhibitor project, dose response (AID 489021); format: functional, cell-based;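 further: HEK-293T cells carrying an NF-kB luciferase reporter; cells exposed to compound for about 14 hours before viability readout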
[2] = viability of HCT116 lacking mutant beta-catenin – cell-based, human colon tumor, dose response (AID 1045); format: functional;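 further: HCT116 colon tumor cells with beta catenin knocked out; cells exposed to compound for 60 hours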
X-box-binding protein 1 = target: T1, X-box-binding protein 1 (Homo sapiens, UniProt P17861); format: functional, Cricetulus griseus;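 further: confirmatory dose-response counter-screen serving a CHOP assay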
T1 sequence (P17861 whole entry): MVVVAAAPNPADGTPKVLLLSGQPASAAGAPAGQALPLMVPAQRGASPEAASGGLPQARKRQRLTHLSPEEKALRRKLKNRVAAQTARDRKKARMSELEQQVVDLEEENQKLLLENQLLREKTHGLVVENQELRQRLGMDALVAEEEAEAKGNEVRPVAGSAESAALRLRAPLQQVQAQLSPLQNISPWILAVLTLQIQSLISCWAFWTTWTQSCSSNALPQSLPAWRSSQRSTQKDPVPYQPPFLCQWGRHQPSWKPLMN

[3] = viability of PTEN-deleted HCT116 cells – cell-based, HCT116 PTEN knockout, dose response (AID 1047); format: functional;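 further: HCT116 colon tumor cells with PTEN knocked out; cells exposed to compound for 60 hours before readout; potency for loss of cell viability measured by luminescence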
[4] = Luminescence Cell-Based Dose Retest to Confirm Inhibitors of Cancer Stem Cells. [Related pubchem assays (depositor defined):AID2717, AID2721]; format: functional; conditions: Homo sapiens
INS1 = assay: INS-1E survival protection against cytokine death – cell-based, luminescence, retest, dose response (AID 449756); format: functional; conditions: Rattus norvegicus;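 further: cell death triggered by IL-1 beta plus TNF-alpha plus IFN-gamma mixture; protective hits raise ATP signal compared with cytokine alone wells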
Streptococcus = assay: GAS UMAA2166 growth inhibition – luminescence, BacTiterGlo, counter-screen for streptokinase expression inhibitor project, dose response (AID 1915); format: functional, organism-based;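 further: potency for reduction of bacterial viability or growth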
[5] = target: T2, Neuropeptide Y receptor type 2 (Homo sapiens, UniProt P49146); assay: Fluorescence-based cell-based high-throughput dose response assay for agonists of NPY-Y2. [Related pubchem assays: 1703 (Screening assay (CNGC inhibitors).), 1359 (Screening assay (NPY-Y2 potentiators or agonists).), 1304 (Screening assay (NPY-Y1 potentiators or agonists).), 1710 (Screening assay (NPY-Y2 agonists).), 1791 (Summary AID.)]; format: functional
T2 sequence (P49146 whole entry): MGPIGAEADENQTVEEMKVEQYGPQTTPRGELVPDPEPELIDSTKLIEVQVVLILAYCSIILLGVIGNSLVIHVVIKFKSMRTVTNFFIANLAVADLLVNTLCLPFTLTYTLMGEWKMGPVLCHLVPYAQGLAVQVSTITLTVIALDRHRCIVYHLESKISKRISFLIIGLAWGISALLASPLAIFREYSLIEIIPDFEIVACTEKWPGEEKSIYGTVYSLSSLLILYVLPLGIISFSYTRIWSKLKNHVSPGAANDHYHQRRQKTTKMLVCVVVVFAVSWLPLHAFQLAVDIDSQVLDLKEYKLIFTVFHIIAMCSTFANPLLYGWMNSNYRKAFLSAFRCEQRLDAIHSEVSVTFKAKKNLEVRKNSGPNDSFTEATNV

[6] = system: Streptococcus sp. 'group A'; assay: Streptococcus pyogenes SK(-)GAS viability under kanamycin – luminescence, BacTiterGlo, confirmation, counter-screen for streptokinase expression inhibitor project, dose response (AID 1900); format: functional, organism-based
HEK293 = assay: Fluorescence-based counterscreen for potentiators or agonists of NPY-Y2: cell-based high-throughput dose response assay to identify inhibitors of cyclic nucleotide gated ion channel (CNGC) activity. In this assay, the parental HEK293 cell line transfected with a cyclic-nucleotide gated ion channel (CNGC)-based cAMP sensor is used to measure inhibition of isoproterenol-induced CNGC activity by test compound.; format: functional; conditions: Homo sapiens
Streptokinase A = target: T3, Streptokinase A (Streptococcus pyogenes serotype M1, UniProt P10520); assay: viability-normalized secreted streptokinase activity reduction – plasminogen activation absorbance, OD405, dose response (AID 1914); format: functional, Streptococcus pyogenes M1 GAS;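 further: secreted streptokinase activity via plasminogen activation per viability signal from cell pellet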
T3 sequence (P10520 whole entry): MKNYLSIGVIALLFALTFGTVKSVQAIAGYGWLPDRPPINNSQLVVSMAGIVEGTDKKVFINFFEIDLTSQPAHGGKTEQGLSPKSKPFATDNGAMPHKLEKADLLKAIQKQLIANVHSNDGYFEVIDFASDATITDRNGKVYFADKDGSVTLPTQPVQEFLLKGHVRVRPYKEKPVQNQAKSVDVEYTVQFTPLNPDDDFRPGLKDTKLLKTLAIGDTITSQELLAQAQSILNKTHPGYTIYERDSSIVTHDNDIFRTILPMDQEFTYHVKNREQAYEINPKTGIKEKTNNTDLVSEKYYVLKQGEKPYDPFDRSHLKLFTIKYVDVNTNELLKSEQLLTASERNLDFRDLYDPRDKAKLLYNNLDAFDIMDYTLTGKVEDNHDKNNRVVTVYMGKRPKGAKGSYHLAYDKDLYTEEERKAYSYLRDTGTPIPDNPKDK

[7] = target: T4, Neuropeptide Y receptor type 1 (Homo sapiens, UniProt P25929); assay: Fluorescence-based counterscreen for agonists of NPY-Y2: cell-based high-throughput dose response assay for agonists of NPY-Y1.; format: functional
T4 sequence (P25929 whole entry): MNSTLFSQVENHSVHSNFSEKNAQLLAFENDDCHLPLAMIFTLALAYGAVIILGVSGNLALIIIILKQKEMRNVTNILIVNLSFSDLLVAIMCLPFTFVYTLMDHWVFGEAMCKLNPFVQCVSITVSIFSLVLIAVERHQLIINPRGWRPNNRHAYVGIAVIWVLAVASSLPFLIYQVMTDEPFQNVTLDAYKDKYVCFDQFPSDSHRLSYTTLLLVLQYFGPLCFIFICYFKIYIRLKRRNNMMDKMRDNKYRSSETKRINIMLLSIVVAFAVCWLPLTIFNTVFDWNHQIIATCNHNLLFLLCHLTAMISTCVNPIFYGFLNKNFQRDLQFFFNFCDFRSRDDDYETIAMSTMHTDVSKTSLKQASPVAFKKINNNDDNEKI

[8] = target: T5, DNA dC->dU-editing enzyme APOBEC-3G (Homo sapiens, UniProt Q9HC16); format: functional
[9] = target: Eukaryotic translation initiation factor 4H (Homo sapiens, UniProt Q15056); assay: eIF4H binding inhibition – biochemical, uHTS, fluorescence polarization, translation initiation inhibitor project, primary screen (AID 2012)
[10] = target: DNA dC->dU-editing enzyme APOBEC-3A (Homo sapiens, UniProt P31941); assay: Dose Response confirmation of small molecule APOBEC3A DNA Deaminase Inhibitors via a fluorescence-based single-stranded DNA deaminase assay. [Related pubchem assays (depositor defined):AID493011, AID493024]; format: functional
[11] = target: Polyadenylate-binding protein 1 (Homo sapiens, UniProt P11940); assay: blockers of PABP interaction with poly(A) – biochemical, fluorescence polarization, […] (AID 2014)
[12] = target: T5, DNA dC->dU-editing enzyme APOBEC-3G; assay: Dose Response confirmation of small molecule APOBEC3G DNA Deaminase Inhibitors via a fluorescence-based single-stranded DNA deaminase assay. [Related pubchem assays (depositor defined):AID493012, AID493028]; format: functional
[13] = target: T6, C-C chemokine receptor type 6 (Homo sapiens, UniProt P51684); assay: antagonism of CCR6 beta-arrestin recruitment – cell-based, luminescent beta-arrestin readout, dose response (AID 504728); format: functional
T6 sequence (P51684 whole entry): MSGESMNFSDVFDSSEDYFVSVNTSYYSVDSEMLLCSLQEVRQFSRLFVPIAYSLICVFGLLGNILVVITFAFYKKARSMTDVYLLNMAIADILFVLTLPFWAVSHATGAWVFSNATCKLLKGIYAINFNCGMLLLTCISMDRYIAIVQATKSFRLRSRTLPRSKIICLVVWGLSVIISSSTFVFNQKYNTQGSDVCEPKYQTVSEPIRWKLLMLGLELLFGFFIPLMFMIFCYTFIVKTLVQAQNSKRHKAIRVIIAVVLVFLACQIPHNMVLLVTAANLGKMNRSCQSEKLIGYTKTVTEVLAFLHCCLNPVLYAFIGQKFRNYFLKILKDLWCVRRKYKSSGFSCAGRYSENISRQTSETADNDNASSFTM

Beta-galactosidase = Beta-galactosidase (Escherichia coli, UniProt Q8VNN2); assay: detection-enzyme interference by beta-gal modulators – biochemical, E. coli enzyme, set 3, artefact control for CCR6 antagonist project, dose response (AID 504712); format: functional
Hexokinase HKDC1 = target: T7, Hexokinase HKDC1 (Homo sapiens, UniProt Q2TB90); assay: inhibition of HKDC1 glucose phosphorylation – biochemical, W721R variant, dose response (AID 504729); format: functional
T7 sequence (Q2TB90 whole entry): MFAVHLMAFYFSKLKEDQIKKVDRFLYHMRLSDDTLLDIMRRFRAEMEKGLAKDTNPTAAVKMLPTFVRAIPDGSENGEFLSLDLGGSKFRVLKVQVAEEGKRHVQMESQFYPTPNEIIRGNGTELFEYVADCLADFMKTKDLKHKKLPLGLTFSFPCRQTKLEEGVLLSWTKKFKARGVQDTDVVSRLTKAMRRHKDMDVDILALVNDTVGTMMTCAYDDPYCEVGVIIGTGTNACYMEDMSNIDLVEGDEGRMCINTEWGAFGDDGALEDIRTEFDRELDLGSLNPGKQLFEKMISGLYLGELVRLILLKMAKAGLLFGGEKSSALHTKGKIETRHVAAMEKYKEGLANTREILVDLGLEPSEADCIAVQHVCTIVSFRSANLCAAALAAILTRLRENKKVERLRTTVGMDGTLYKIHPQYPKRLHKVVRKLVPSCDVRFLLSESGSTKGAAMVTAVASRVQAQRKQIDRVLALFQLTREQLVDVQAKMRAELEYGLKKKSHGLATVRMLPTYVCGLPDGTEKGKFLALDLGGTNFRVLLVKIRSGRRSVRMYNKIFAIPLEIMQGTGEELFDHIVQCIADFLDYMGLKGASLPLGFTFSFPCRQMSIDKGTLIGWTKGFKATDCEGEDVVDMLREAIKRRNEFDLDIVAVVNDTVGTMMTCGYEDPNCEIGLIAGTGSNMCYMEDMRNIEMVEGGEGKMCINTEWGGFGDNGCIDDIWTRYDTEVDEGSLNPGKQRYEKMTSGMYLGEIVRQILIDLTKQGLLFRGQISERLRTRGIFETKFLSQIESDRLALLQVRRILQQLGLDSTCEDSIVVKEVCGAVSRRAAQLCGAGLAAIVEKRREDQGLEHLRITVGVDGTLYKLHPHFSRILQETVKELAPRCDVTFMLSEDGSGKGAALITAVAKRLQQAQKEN

Large T antigen = Large T antigen (Simian virus 40, UniProt P03070); format: functional, Betapolyomavirus macacae;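 further: Confirmatory-stage PubChem screen for compounds that inhibit SV40 T antigen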
[14] = target: Disintegrin and metalloproteinase domain-containing protein 17 (Homo sapiens, UniProt P78536); assay: inhibition of ADAM17 substrate cleavage – biochemical, quenched FRET substrate, counter-screen for ADAM10 exosite inhibitor project, dose response (AID 743253)
[15] = target: Heat shock protein HSP 90-alpha (Homo sapiens, UniProt P07900); format: functional, organism-based
Nonstructural protein 1 = Nonstructural protein 1 (Influenza A virus, UniProt Q194T2); format: functional, Influenza A virus (A/California/07/2009(H1N1))
cells [16] = format: functional, cell-based
cells [17] = format: functional, cell-based; remark: listed apart in the source

Sequence of Beta-galactosidase (Q8VNN2 whole entry): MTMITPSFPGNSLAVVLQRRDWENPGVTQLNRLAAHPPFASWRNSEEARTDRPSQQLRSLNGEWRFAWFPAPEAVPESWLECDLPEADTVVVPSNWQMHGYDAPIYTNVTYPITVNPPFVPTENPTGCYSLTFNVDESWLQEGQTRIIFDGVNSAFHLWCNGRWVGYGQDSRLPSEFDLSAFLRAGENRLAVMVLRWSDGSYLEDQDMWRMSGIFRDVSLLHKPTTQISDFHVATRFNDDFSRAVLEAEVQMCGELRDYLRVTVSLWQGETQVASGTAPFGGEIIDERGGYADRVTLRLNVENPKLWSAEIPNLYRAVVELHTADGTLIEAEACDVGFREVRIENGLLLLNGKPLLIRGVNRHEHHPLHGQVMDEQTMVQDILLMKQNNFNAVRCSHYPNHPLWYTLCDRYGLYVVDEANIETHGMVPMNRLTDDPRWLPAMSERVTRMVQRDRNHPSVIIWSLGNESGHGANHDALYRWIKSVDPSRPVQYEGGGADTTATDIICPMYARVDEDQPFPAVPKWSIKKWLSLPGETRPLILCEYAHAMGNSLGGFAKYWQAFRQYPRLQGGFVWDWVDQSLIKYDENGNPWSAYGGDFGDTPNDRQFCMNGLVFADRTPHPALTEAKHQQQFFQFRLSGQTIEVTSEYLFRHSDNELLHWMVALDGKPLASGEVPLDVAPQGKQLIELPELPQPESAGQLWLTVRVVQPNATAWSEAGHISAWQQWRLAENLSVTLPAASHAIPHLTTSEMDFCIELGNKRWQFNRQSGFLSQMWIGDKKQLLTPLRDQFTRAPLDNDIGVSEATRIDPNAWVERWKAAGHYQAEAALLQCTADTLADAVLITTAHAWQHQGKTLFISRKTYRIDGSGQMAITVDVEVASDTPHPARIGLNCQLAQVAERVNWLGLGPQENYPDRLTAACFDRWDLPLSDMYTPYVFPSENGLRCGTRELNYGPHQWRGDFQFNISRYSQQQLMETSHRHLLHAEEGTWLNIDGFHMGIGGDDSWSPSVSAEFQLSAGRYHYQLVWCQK
T5 sequence (Q9HC16 whole entry): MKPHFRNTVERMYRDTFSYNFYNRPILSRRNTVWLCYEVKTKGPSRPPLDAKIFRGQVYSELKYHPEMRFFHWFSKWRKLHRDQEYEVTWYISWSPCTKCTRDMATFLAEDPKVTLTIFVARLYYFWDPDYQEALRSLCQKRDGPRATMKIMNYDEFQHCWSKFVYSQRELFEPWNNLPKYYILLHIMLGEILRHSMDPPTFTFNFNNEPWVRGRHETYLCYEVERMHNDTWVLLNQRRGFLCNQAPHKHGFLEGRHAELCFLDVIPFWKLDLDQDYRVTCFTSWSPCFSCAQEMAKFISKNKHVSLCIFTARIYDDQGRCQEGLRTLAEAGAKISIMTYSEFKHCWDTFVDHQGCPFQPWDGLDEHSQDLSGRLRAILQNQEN
Sequence of Cytochrome P450 2C19 (P33261 whole entry): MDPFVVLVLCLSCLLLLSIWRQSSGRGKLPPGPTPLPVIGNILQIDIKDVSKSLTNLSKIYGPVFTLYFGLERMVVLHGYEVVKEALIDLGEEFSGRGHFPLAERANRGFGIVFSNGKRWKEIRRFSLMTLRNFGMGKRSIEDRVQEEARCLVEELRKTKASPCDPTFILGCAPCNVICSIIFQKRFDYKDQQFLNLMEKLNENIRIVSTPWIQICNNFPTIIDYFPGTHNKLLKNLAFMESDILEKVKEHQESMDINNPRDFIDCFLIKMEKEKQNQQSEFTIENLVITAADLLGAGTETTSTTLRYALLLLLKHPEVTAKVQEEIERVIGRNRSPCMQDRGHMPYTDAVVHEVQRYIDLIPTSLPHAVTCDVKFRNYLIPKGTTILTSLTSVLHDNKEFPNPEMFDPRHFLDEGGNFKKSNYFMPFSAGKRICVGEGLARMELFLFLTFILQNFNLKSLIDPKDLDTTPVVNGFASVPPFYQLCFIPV
Sequence of Disintegrin and metalloproteinase domain-containing protein 17 (P78536 whole entry, the tested form may be a part): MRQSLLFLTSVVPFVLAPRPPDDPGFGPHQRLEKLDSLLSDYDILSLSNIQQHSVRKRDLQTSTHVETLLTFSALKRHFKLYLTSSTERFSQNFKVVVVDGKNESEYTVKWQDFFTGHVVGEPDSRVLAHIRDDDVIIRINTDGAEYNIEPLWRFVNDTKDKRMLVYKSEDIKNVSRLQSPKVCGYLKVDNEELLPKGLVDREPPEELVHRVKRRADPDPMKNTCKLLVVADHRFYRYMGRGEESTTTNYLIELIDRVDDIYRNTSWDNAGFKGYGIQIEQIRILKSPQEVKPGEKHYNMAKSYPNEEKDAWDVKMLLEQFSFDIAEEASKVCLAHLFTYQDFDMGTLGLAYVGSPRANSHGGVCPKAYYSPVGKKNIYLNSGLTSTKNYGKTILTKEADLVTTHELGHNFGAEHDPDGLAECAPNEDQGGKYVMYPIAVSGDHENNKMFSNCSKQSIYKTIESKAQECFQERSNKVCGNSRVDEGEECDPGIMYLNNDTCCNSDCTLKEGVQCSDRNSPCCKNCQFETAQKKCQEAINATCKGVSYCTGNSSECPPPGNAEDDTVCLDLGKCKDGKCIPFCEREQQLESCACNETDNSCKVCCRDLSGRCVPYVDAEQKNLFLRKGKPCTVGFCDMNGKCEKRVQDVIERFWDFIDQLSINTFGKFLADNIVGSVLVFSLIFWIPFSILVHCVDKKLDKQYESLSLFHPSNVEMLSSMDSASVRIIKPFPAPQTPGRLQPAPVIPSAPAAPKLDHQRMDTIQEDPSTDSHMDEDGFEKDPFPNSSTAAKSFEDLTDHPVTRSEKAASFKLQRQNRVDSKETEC
Sequence of Polyadenylate-binding protein 1 (P11940 whole entry): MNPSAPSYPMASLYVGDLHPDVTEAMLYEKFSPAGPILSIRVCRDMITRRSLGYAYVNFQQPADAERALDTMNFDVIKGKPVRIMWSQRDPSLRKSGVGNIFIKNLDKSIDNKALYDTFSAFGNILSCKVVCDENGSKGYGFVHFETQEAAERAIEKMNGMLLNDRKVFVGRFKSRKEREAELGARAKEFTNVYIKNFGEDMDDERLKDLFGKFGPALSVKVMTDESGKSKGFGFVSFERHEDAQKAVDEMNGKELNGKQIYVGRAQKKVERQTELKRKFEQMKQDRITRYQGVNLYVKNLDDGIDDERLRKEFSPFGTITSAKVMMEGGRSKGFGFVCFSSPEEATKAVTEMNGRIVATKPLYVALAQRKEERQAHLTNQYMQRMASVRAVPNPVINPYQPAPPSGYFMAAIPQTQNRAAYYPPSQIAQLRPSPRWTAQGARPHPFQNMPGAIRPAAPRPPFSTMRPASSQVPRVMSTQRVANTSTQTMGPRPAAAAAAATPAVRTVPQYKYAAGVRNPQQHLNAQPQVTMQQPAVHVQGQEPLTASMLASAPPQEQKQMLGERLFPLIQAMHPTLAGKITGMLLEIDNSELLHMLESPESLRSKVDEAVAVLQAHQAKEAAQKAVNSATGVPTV
Sequence of Nonstructural protein 1 (Q194T2 whole entry): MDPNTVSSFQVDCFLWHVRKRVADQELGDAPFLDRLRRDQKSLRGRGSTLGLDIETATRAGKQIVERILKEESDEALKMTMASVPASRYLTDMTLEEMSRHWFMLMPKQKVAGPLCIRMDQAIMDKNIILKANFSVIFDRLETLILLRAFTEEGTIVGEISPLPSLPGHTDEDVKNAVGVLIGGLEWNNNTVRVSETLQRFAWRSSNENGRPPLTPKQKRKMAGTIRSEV
Sequence of DNA dC->dU-editing enzyme APOBEC-3A (P31941 whole entry): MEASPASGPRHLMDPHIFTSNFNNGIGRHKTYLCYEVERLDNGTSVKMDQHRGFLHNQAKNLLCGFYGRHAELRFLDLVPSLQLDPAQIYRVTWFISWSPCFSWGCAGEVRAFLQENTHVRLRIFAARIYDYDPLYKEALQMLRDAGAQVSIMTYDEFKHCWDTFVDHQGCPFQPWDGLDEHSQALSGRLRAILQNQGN
Sequence of Large T antigen (P03070 whole entry, the tested form may be a part): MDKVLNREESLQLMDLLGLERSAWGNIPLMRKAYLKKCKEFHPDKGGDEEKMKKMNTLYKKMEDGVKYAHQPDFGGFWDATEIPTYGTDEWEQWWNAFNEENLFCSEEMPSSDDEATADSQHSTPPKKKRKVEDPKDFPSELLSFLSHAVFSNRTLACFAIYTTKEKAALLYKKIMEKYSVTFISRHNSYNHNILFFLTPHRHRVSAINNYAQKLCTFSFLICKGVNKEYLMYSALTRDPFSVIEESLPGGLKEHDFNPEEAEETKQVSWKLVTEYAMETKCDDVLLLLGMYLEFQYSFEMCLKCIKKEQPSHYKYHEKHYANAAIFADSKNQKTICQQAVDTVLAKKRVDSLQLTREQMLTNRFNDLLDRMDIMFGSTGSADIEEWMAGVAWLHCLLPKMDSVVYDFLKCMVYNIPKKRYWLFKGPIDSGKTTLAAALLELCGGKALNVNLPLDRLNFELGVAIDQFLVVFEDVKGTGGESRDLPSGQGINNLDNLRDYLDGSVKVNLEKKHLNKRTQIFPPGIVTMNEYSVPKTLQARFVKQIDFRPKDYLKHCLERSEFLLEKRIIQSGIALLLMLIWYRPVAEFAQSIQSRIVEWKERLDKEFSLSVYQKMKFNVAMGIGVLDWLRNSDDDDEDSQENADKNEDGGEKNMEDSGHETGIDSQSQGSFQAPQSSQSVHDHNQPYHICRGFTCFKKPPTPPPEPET

## Cc1ccc(-c2nn3c(C)nnc3c3ccccc23)cc1S(=O)(=O)NCCN1CCOCC1
Cytochrome P450 2C19
  AC50: inconclusive
Cytochrome P450 2C9
  AC50: 20 µM (inconclusive)
[1]
  IC50: > 80 µM (inactive)

## Cc1ccc(S(=O)(=O)Nc2ccc(NC(=O)Nc3cccc(C(F)(F)F)c3)cc2)cc1
[2]
  EC50: 12.9 µM (active)
X-box-binding protein 1
  Absolute IC50 (XBP1): 10 µM
[3]
  EC50: 9.49 µM (active)
[4]
  AC50: 1.36 µM (active)
INS1
  AC50: 8.16 µM (active)

## COCCCN1C(=O)/C(=C\c2nc(C#N)c(Nc3ccc(C)cc3)o2)SC1=S
Streptococcus
  EC50: > 150 µM (not active)
[5]
  EC50: > 35.4 µM (not active)
[6]
  EC50: 108 µM (active)
HEK293
  EC50: > 35.4 µM (not active)
Streptokinase A
  EC50: > 150 µM (not active)
[7]
  EC50: > 35.4 µM (not active)

## CCn1c(=O)c2cc(C(=O)NCc3cccs3)sc2c2ccccc21
[1]
  IC50: > 80 µM (inactive)

## COc1ccc(C(=O)Nc2ccc(OC)c([N+](=O)[O-])c2)cc1Br
[1]
  IC50: > 80 µM (inactive)

## C[n+]1ccc(-c2ccncc2)cc1
[8]
  IC50: 2.53 µM (active)
[9]
  IC50: 82.2 µM (active)
[10]
  IC50: 2.02 µM (active)
[11]
  IC50: 7.33 µM (active)

## Nc1c(N(C(=O)Nc2ccc(Cl)c(Cl)c2)C2CCCC2)c(=O)[nH]c(=O)n1Cc1ccccc1
[2]
  EC50: 15.3 µM (active)
X-box-binding protein 1
  Absolute IC50 (XBP1): 10 µM
[3]
  EC50: 15.5 µM (active)

## COC(=O)/C(=C(/F)Sc1cc(C)c(O)c(C)c1)C(F)(F)F
X-box-binding protein 1
  Absolute IC50 (XBP1): 10 µM

## CCOC(=O)c1sc(NC(=O)C(C)C)c(C#N)c1C
[12]
  IC50: 39.3 µM (active)

## CN(CC(=O)Nc1ccc(OC(F)F)cc1)S(=O)(=O)/C=C/c1ccccc1
[13]
  IC50: > 66.6 µM (inactive)
Beta-galactosidase
  IC50: > 66.6 µM (inactive)

## CC[C@H](C)/C=C(C)/C=C/C1=CC2=C(Cl)C(=O)[C@@](C)(OC(C)=O)C(=O)C2=CO1
Hexokinase HKDC1
  IC50: 16.8 µM (active)
Large T antigen
  IC50: 30.4 µM (active)

## O=[N+]([O-])c1ccc(O)c(/C=N/Nc2ccccn2)c1
[14]
  IC50: 9.75 µM (active)
[13]
  IC50: > 66.6 µM (inactive)
[15]
  AC50: 3.97 µM (active)
Nonstructural protein 1
  IC50: 7.05 µM (active)
Beta-galactosidase
  IC50: > 66.6 µM (inactive)
Cells [16]
  EC50: > 350 µM (not active)
INS1
  AC50: 0.342 µM (active)
Cells [17]
  EC50: > 350 µM (not active)

Reference: ChEMBL document CHEMBL1201862, “PubChem BioAssay data set” (2004)
